Assay results taken from US8673910B2, “Proteasome inhibitors for selectively inducing apoptosis in cancer cells” (H. Lee Moffitt Cancer Center and Research Institute, priority 2008, dated 2014).
Where “and” joins values, the source holds several entries; their conditions need not be identical. Equal values may be shown once. Read-outs that look alike come from different tables or passages of the source.

What was measured:
[1] = system: primary multiple myeloma cells isolated from patients' bone marrow; assay: Proliferation of primary multiple myeloma cells (Trypan blue); type: cell-based, human; settings: primary MM cells, 24 h treatment, Table 5: one value per patient, mean over patients
Description: MM patients' bone marrow samples were collected from Liquid Tissue Bank facility. Freshly isolated bone marrow samples were fractionated by Ficoll-Paque (Pharmacia Biotech, Piscataway, N.J.) sedimentation. The mononuclear cellular layer was then resuspended in RPMI-1640 containing 10% heat-inactivated fetal bovine serum, 10 mM HEPES (pH 7.4), sodium pyruvate, L-glutamine, and 1% penicillin-streptomycin.
Adherent cells were harvested using trypsinization and pooled with suspension cells from media supernatant by pelleting at 300 g for 5 min at 4° C. The cells were then resuspended in an appropriate volume of media by pipetting gently up and down. Two 20 μl aliquots were removed and combined with an equal volume of 0.4% Trypan blue and allowed to mix for 1 minute. A 10 μl volume was loaded onto a hemacytometer and cells were scored as live or dead based on Trypan blue dye exclusion and the percentage of dead cell number to total cell number was calculated. To calculate the percentage of proliferation, the number of live cells in the treated samples was divided by the number of live cells in the untreated vehicle control.

[2] = system: A549 lung cancer xenografts; assay: Antitumor study of human tumor xenografts in nude mice (A549); type: in vivo; settings: 1 mpk i.p. 2× weekly; for average tumor size of A549-derived xenografts: start at about 200 mm^3
Description: Nude mice (Charles River Laboratories, Wilmington, Mass.) were maintained and treated in accordance with the Institutional Animal Care and Use Committee procedures and guidelines. Seven days before inoculation with MCF-7 cells, the animals were fully anesthetized for subcutaneous implantation of estradiol pellets (0.25 mg per pellet, 60-day release; Innovative Research of America, Sarasota, Fla.) on the dorsal surface of mice. Exponentially growing MCF-7 and A549 cells were harvested via trypsinization, pelleted at 300 g for 5 minutes, resuspended in sterile PBS (Invitrogen) at 10^7 cells per 100 μl, and injected into each flank of mice. The tumor xenografts were monitored with an electronic caliper every other day for 16 days. Tumor volume was calculated using the formula V=W^2L, where width is the largest diameter and length is the smallest diameter. When the tumors reached ˜200 mm^3, the animals were randomized and treatment schedules were implemented. […] 2 hours after the last injections animals were sacrificed via CO2 inhalation, and then tumors and livers were harvested and snap frozen in liquid N2.

[3] = molecular target: T1, chymotrypsin-like (CT-L) activity of purified 20S rabbit proteasome (Oryctolagus cuniculus, UniProt G1T4Q9); assay: Proteolytic activity of purified 20S proteasome, fluorogenic substrate Suc-Leu-Leu-Val-Tyr-AMC; type: biochemical
T1 sequence (G1T4Q9 1-263): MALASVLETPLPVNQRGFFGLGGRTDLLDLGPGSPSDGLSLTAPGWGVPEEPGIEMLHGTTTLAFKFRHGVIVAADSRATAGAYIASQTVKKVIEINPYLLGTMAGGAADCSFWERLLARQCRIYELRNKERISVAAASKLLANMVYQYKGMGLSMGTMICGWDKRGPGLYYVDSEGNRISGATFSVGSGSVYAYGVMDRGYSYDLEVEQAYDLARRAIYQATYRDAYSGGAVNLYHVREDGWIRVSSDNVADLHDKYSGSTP
Description: After incubation, production of hydrolyzed 7-amido-4-methyl-coumarin (AMC) groups was measured using a WALLAC Victor^2 1420 Multilabel Counter with an excitation filter of 355 nm and an emission filter of 460 nm (Perkin Elmer Life Sciences, Turku, Finland).
The inhibitory activity of the compounds was calculated based on vehicle control). This technique monitors the hydrolytic release of a coumarin species from a synthetic peptide substrate.
The assay was conducted by using a fluorogenic peptide as substrate to test synthesized compounds for inhibitory activity against the chymotrypsin-like activity of the purified rabbit 20S proteasome. Briefly, 70 ng of purified 20S proteasome was incubated with 20 μM Suc-Leu-Leu-Val-Tyr-AMC for 1 hour at 37° C. in 100 μl of assay buffer (50 mM Tris-HCl, pH 7.6) with or without inhibitors. After incubation, production of hydrolyzed 7-amido-4-methyl-coumarin (AMC) was measured using a WALLAC Victor2 1420 Multilabel Counter with an excitation filter of 355 nm and an emission filter of 460 nm (Perkin Elmer Life Sciences, Turku, Finland). The inhibitory activity of the compounds was calculated based on vehicle control.

[4] = system: MCF-7 breast cancer cells; assay: MTT metabolism assay; type: cell-based, human; settings: Homo sapiens
Description: (§1) Cells were plated in 96-well plates in 100 μl medium and allowed to attach overnight. […] Media was aspirated after 24 or 72 hours and replaced with 100 μl complete media containing 1 mg/ml MTT and incubated for three hours at 37° C. in 5% CO2 humidified incubator. Media was then aspirated and DMSO was added. Cells were incubated for 10 min at room temperature while shaking, and the absorbance was determined at 540 nm using a μQuant spectrophotometric plate reader (Bio-TEK, Winooski, Vt.).
Cells were plated in 96-well plates in 100 μl medium and allowed to attach overnight. Cells were then incubated for 72 h with varying concentrations of PI-083, YG1-080, YG1-075, HL2-090-2, HL2-090-4, HL2-090-6, and HL2-090-9 or vehicle control (DMSO). Media was aspirated and replaced with 100 μl complete media containing 1 mg/ml MTT and incubated for three hours at 37° C. in 5% CO2 humidified incubator. Media was then aspirated and DMSO was added. Cells were incubated for 10 min at room temperature while shaking, and the absorbance was determined at 540 nm using a μQuant spectrophotometric plate reader (Bio-TEK, Winooski, Vt.).

[5] = system: HPDE6-C7 (C7) pancreatic epithelial cells; assay: MTT metabolism assay; type: cell-based; settings: Homo sapiens, HPDE6c7, mean ± SD of 3 to 5 experiments, read-out: IC50 for cell viability measured by MTT assay
Description: as §1

[6] = system: U266 multiple myeloma cells; assay: MTT metabolism assay; type: cell-based; settings: Homo sapiens, U-266, mean ± SD of 3 to 5 experiments, read-out: IC50 for cell viability measured by MTT assay
Description: as §1

[7] = system: LNCaP prostate cancer cells; assay: MTT metabolism assay; type: cell-based; settings: Homo sapiens, mean ± SD of 3 to 5 experiments, read-out: IC50 for cell viability measured by MTT assay
Description: as §1

A549 lung cancer cells = assay: MTT metabolism assay; type: cell-based; settings: Homo sapiens, mean ± SD of 3 to 5 experiments, read-out: IC50 for cell viability measured by MTT assay
Description: as §1

CaLu-1 lung cancer cells = assay: MTT metabolism assay; type: cell-based; settings: Homo sapiens, mean ± SD of 3 to 5 experiments, read-out: IC50 for cell viability measured by MTT assay
Description: as §1

[8] = system: RPMI-8226 multiple myeloma cells; assay: MTT metabolism assay; type: cell-based; settings: Homo sapiens, mean ± SD of 3 to 5 experiments, read-out: IC50 for cell viability measured by MTT assay
Description: as §1

[9] = system: DU-145 prostate cancer cells; assay: MTT metabolism assay; type: cell-based; settings: Homo sapiens, read-out: IC50 for cell viability measured by MTT assay
Description: as §1

[10] = system: HPDE6-C7-Kras (C7-Kras) pancreatic cancer cells; assay: MTT metabolism assay; type: cell-based; settings: Homo sapiens, Pancreatic cancer cell, mean ± SD of 3 to 5 experiments, read-out: IC50 for cell viability measured by MTT assay
Description: as §1

[11] = system: T80 ovarian epithelial cells; assay: MTT metabolism assay; type: cell-based; settings: Homo sapiens, Epithelial cell, mean ± SD of 3 to 5 experiments, read-out: IC50 for cell viability measured by MTT assay
Description: as §1

[12] = system: MCF-10A breast epithelial cells; assay: MTT metabolism assay; type: cell-based; settings: Homo sapiens, mean ± SD of 3 to 5 experiments, read-out: IC50 for cell viability measured by MTT assay
Description: as §1

[13] = molecular target: T2, hepatic CT-L, T-L, and PGPH activities (Mus musculus, UniProt O09061+O55234+P70195+Q60692); assay: Proteasome activities in livers of tumor-bearing mice after in vivo treatment; set-up: species or system nude mice; settings: livers extracted 2 hours after last i.p. injection (1 mpk)
T2 construct: from tissue; host or cells: liver of tumour-bearing nude mice (Charles River)
Description: To determine proteasome activity in whole cell extracts from cultured cells (5 μg) or tumor and liver tissue extracts (30 μg) from nude mice, the same assay was used except that the buffer was changed to 20 mM HEPES, 0.5 mM EDTA, pH 8.0.
Whole cell extracts were prepared as follows: Cells were harvested, washed with PBS twice, and homogenized in a lysis buffer (50 mM Tris-HCl, pH 8.0, 5 mM EDTA, 150 mM NaCl, 0.5% NP-40) for 30 min at 4° C. Cell extracts from tumors and livers of nude mice were prepared in 50 mM HEPES, 0.5 mM EDTA, pH 8.0. Cell lysates were centrifuged at 12,000 g for 15 min, and the supernatants were collected as whole cell extracts.
Nude mice (Charles River Laboratories, Wilmington, Mass.) were maintained and treated in accordance with the Institutional Animal Care and Use Committee procedures and guidelines. […] Exponentially growing MCF-7 and A549 cells were harvested via trypsinization, pelleted at 300 g for 5 minutes, resuspended in sterile PBS (Invitrogen) at 10^7 cells per 100 μl, and injected into each flank of mice. The tumor xenografts were monitored with an electronic caliper every other day for 16 days. Tumor volume was calculated using the formula V=W^2L, where width is the largest diameter and length is the smallest diameter. When the tumors reached ˜200 mm^3, the animals were randomized and treatment schedules were implemented. […]

[14] = system: T80-Hras ovarian cancer cells; assay: MTT metabolism assay; type: cell-based; settings: Homo sapiens, mean ± SD of 3 to 5 experiments, read-out: IC50 for cell viability measured by MTT assay
[15] = read-out: Proliferation 24 h (IC50 values)
[16] = MCF7, 24 h, MCF-7, 24 h, mean ± SD of 3 to 5 experiments, read-out: IC50 for cell viability measured by MTT assay
[17] = MCF7, 72 h, MCF-7, 72 h, mean ± SD of 3 to 5 experiments (Table 3), read-out: IC50 for cell viability measured by MTT assay

SMILES | IC50 [1, 15] | average tumor size of A549-derived xenografts [2] | IC50 [4, 16] [µM] | IC50 [4, 17] [µM] | IC50 ([5]; C7, 24 h) [µM] | IC50 ([5]; C7, 72 h) [µM] | IC50 ([6]; U266, 24 h) [µM] | IC50 ([7]; 24 h) [µM] | IC50 ([7]; 72 h) [µM] | IC50 (A549 lung cancer cells; A549, 24 h) [µM] | IC50 (A549 lung cancer cells; A549, 72 h) [µM] | IC50 (CaLu-1 lung cancer cells; CaLu-1, 24 h) [µM] | IC50 (CaLu-1 lung cancer cells; CaLu-1, 72 h) [µM] | IC50 ([8]; RPMI-8226, 24 h) [µM] | IC50 ([8]; RPMI-8226, 72 h) [µM] | IC50 ([9]; DU-145, 24 h) [µM] | IC50 ([9]; DU-145, 72 h) [µM] | IC50 ([10]; 24 h) [µM] | IC50 ([10]; 72 h) [µM] | IC50 ([11]; T80, 24 h) [µM] | also measured
O=C1C(Cl)=C(Nc2ccc(S(=O)(=O)Nc3ccccn3)cc2)C(=O)c2ccccc21 [PI-083, 4-(3-chloro-1,4-dioxo-1,4-dihydronaphthalen-2-ylamino)-N-(pyridin-2-yl)benzenesulfonamide] | 6.6 µM and 1.3 µM and 2.2 µM and 2.6 µM and 1.7 µM and 2.8 µM and 10 µM and 5 µM and 2.9 µM | about 511±134 mm^3 | 4.5 ± 0.82 | 2.2 ± 1.1 | 5.1 ± 0.53 | 4.2 ± 1.6 | 23 ± 1.7 | 14 ± 2.8 | 5.2 ± 1.1 | 41 ± 17 | 11 ± 6.7 | 7.3 ± 0.43 | 4.9 ± 1.2 | 7.4 ± 0.38 | 10 ± 4 | 8.6 ± 0.63 | 5 ± 0.72 | 2.4 ± 0.23 | 1.9 ± 0.2 | 2.7 ± 0.53 | tumor growth inhibition, A549 xenografts [2]: 54%; IC50 ([3]; PI-083 derivatives (Table 7, naphthoquinone library), purified rabbit 20S proteasome, read-out: IC50 (μM) Chymotrypsin-like activity): 1.2 ± 1 µM; IC50 ([3]; purified 20S rabbit proteasome, Table 4: means of 3 experiments ± standard error, read-out: IC50 for CT-L activity in vitro): 1 µM; IC50 ([4]; MCF7, 72 h, MCF-7, 72 h (Table 6), read-out: IC50 for cell viability measured by MTT assay in MCF-7 human breast cancer cells): 2.31 ± 0.1 µM; IC50 ([6]; U266, 72 h): 7 ± 1.5 µM; IC50 ([11]; T80, 72 h): 1.7 ± 0.39 µM; IC50 ([12]; 24 h): 17 ± 0.86 µM; IC50 ([12]; 72 h): 4.2 ± 2.1 µM; effect on proteasome activities in livers of tumor-bearing mice [13]: did not inhibit liver proteasome activities; IC50 ([14]; 24 h): 1.5 ± 0.57 µM; IC50 ([14]; 72 h): 2.1 ± 0.4 µM
CC(C)C[C@H](NC(=O)[C@H](Cc1ccccc1)NC(=O)c1cnccn1)B(O)O [Bortezomib, reference compound] | > 10 µM | 864±207 mm^3 | > 30 | 8.6 ± 1.41 | > 30 | 0.032 ± 0.001 | > 30 | > 30 | 0.057 ± 0.004 | > 30 | 0.41 ± 0.07 | > 30 | 0.022 ± 0.002 | 0.049 ± 0.025 | 0.026 ± 0.003 | > 30 | 0.025 ± 0.002 | > 30 | 0.028 ± 0.006 | > 30 | IC50 ([1]; Homo sapiens, Multiple myeloma cell, read-out: Proliferation 24 h (IC50 values, μM)): > 10 µM; difference in potency between bortezomib and PI-083 ([3]; CT-L inhibition): 100 fold; IC50 ([11]; T80, 72 h): 0.014 ± 0.001 µM; IC50 ([12]; 24 h): > 30 µM; IC50 ([12]; 72 h): 0.15 ± 0.074 µM; effect on proteasome activities in livers of tumor-bearing mice [13]: significantly inhibited hepatic CT-L, T-L, and PGPH activities; IC50 ([14]; 24 h): > 30 µM
